Data set [1] is described as follows: Cytotoxicity assay (CCK-8) on replicon cells. In kind it is cell-based. As to conditions: human, HCV 1b replicon cells (Huh-7.5.1); 50% cytotoxic concentration; CCK-8, HCV 1b replicon cells, 72 h. The protocol: (§1) The HCV replicons were validated as convenient and effective models for testing the anti-HCV activity. Since HCV subtype 1b is one of the major subtypes worldwide, especially in China, the replicon model from the Huh-7.5.1 cell line integrating HCV 1b genome encoding the nonstructural proteins was chosen to evaluate the anti-HCV activities of 3-hydroxyquinazoline-2,4(1H,3H)-diones. The inhibitory rates of the compounds on HCV replicon cells were determined at concentrations of 25 μM and 10 μM, respectively. The broad-spectrum antiviral drug ribavirin (RBV) and the NS5B nucleoside inhibitor 2′-C-methyladenosine (2CMA) were selected as positive controls. The cytotoxicity of these compounds on replicon cells was determined using the cell counting kit-8 (CCK-8) assay.
The HCV 1b replicon cells were incubated and treated with test compounds or blank DMSO in a 48-well plate using the same materials and methods as described in the experimental procedure of anti-HCV assay. The final concentration of DMSO in each well was 0.1%. After 72 h of drug treatment, the culture medium in the well plate was removed, and cells in each well were washed with 300 μL of PBS. A total of 300 μL of pre-prepared fresh culture medium containing 30 μL CCK-8 reagent (Donjindo, Kumamoto, Japan) was added to each well, and the plate was incubated at 5% CO2/37 °C for 2 h. The OD (optical density) value of each well at 450 nm was measured using a multi-function microplate reader (SpectraMax M5, Molecular Devices, San Jose, CA, USA). The death ratio of each well was calculated using the following equation, in which ODcompound or ODblank represents the measured OD value of the compound group or the blank control (DMSO), respectively:death ratio = (1−ODcompound/ODblank) × 100%(2)
The cell death data under at least six different concentration gradients were imported into GraphPad Prism 7.0.0 software (GraphPad Software Inc., San Diego, CA, USA), and the CC50 (50% cytotoxic concentration) values were calculated using the nonlinear fitting method.

Data set [2] has as its system HCV 1b replicon cells (Huh-7.5.1). As to the kind of experiment: Anti-HCV assay, HCV 1b replicon cells with luciferase reporter. In kind it is cell-based, hepatitis C virus (HCV) subtype 1b. The conditions noted are these: Hepatitis C virus, Huh-7.5.1, 72 h, inhibitory rate at 5 μM. In general terms: A replicon is a self-replicating genome or part of one, used to study replication in cells.

Data set [3] has the same test system. Described as above. In kind it is cell-based, hepatitis C virus (HCV) subtype 1b. The conditions noted are these: Hepatitis C virus, HCV 1b replicon cells; for EC50: Huh-7.5.1, 50% effective concentration, mean ± SD; for inhibition at 10 µM / inhibition at 25 µM: Huh-7.5.1, 72 h, 72 h; for inhibition at 10 µM: inhibitory rate at 10 μM, read-out: HCV Inhibition 10 μM; for inhibition at 25 µM: inhibitory rate at 25 μM, read-out: HCV Inhibition 25 μM. Here is the method: as §1
HCV 1b replicon cells (Huh-7.5.1) containing luciferase reporter gene were kindly provided by Prof. Zhenghong Yuan (Key Laboratory of Medical Molecular Virology, Fudan University, Shanghai, China). The replicon cells were plated at 1.5 × 10^4 cells per well in a 48-well plate (Corning Inc., New York, NY, USA) at 5% CO2/37 °C. The culture medium was Dulbecco’s Modified Eagle Medium (DMEM, pH 7.3, Shanghai XP Biomed Ltd., Shanghai, China) containing 10% fetal bovine serum (Shanghai XP Biomed Ltd., Shanghai, China), 10^5 U/L penicillin, 0.1 g/L streptomycin, and 0.5 μg/mL blasticidin. After 12 h, the culture medium in each well was replaced with 300 μL of pre-prepared fresh culture medium containing test compound (dissolved in DMSO with specific concentration) or blank DMSO. The final concentration of DMSO in the culture medium in the plate was 0.1%. Each group was tested at least twice in parallel. Ribavirin and 2CMA were used as the positive controls. After incubating the drug-added plate at 5% CO2/37 °C for 72 h, the medium was removed, and each well was washed with 300 μL of phosphate buffer solution (PBS, Shanghai XP Biomed Ltd., Shanghai, China). The cells in each well were then lysed with 50 μL of 1× lysis buffer (E2820, Promega, Madison, WI, USA). Subsequently, 50 μL of 1× luciferase assay substrate (E2820, Promega, Madison, WI, USA) was mixed with 20 μL of the harvested cell lysates.
The inhibitory rates under at least six different concentration gradients were imported into GraphPad Prism 7.0 software to calculate the anti-HCV EC50 values of the compounds using the nonlinear fitting method.

The record followed here is publication PMC9180926, “Discovery of Novel 3-Hydroxyquinazoline-2,4(1H,3H)-Dione Derivatives: A Series of Metal Ion Chelators with Potent Anti-HCV Activities” (International Journal of Molecular Sciences, 2022).

Molecules are shown by their SMILES.

As to `O=c1[nH]c2ccc(-c3ccccc3)cc2c(=O)n1O` [21a, 3-Hydroxy-6-phenylquinazoline-2,4(1H,3H)-dione], the CC50 – broadly, the concentration giving 50% cytotoxicity – at 72 h in data set [1] was 5.5 ± 1 µM. In addition, the inhibition (usually the drop in the measured response relative to a control, in per cent) at 5 µM in data set [2] turned out to be 35.6%. In data set [3], the EC50 (as a rule, the concentration needed to bring the measured effect to its halfway point) was determined as 4.3 ± 0.7 µM and the inhibition at 10 µM stood at 65.4%.
Consider `O=c1[nH]c2ccc(-c3ccc(F)cc3)cc2c(=O)n1O` [21b, 6-(4-Fluorophenyl)-3-hydroxyquinazoline-2,4(1H,3H)-dione], for which half-maximal cytotoxicity in data set [1] (CC50 at 72 h) was put at 8 ± 2.2 µM. Also, the inhibition at 5 µM in data set [2] was determined as 47.7%. In addition, in data set [3], the EC50 came to 6.1 ± 0.1 µM and the inhibition at 10 µM is 79.7%.
`COc1ccc(-c2ccc3[nH]c(=O)n(O)c(=O)c3c2)cc1` [21c, 3-Hydroxy-6-(4-methoxyphenyl)quinazoline-2,4(1H,3H)-dione] gave a CC50 at 72 h in data set [1] of 14.8 ± 5.3 µM. The inhibition at 5 µM in data set [2] stood at 11.1%. For the same molecule, in data set [3], a half-maximal effect (EC50) was put at 7.2 ± 0.8 µM and the inhibition at 10 µM came to 48.2%.
For the molecule `O=c1[nH]c2ccc(-c3cccc([N+](=O)[O-])c3)cc2c(=O)n1O` [21d, 3-Hydroxy-6-(3-nitrophenyl)quinazoline-2,4(1H,3H)-dione], half-maximal cytotoxicity in data set [1] (CC50 at 72 h) was put at 6.6 ± 1.5 µM. The inhibition at 5 µM in data set [2] amounted to 71.1%. In data set [3], the EC50 was 4.8 ± 0.8 µM and the inhibition at 10 µM is 78.5%.
In turn, `O=c1[nH]c2cc(-c3ccc(F)cc3)ccc2c(=O)n1O` [21f, 7-(4-Fluorophenyl)-3-hydroxyquinazoline-2,4(1H,3H)-dione] gave a CC50 at 72 h in data set [1] of 4.1 ± 0.6 µM. Further, the inhibition at 5 µM in data set [2] was found to be 73.4%. Moreover, in data set [3], the 50% effective concentration (EC50) turned out to be 3.1 ± 0.1 µM and the inhibition at 10 µM worked out at 78.8%.
On to `Nc1ccccc1-c1ccc2c(=O)n(O)c(=O)[nH]c2c1` [21g, 7-(2-Aminophenyl)-3-hydroxyquinazoline-2,4(1H,3H)-dione], for which the CC50 at 72 h in data set [1] is 16.2 ± 0.7 µM. Further, in data set [2], the inhibition at 5 µM was determined as 24.7%. In data set [3], the EC50 is 8.8 ± 1.8 µM and the inhibition at 10 µM was determined as 64.7%.
The molecule `COc1ccc(-c2ccc3c(=O)n(O)c(=O)[nH]c3c2)cc1` [21i, 3-Hydroxy-7-(4-methoxyphenyl)quinazoline-2,4(1H,3H)-dione] came in with a CC50 at 72 h in data set [1] of 5.6 ± 0.5 µM. Besides, in data set [3], the EC50 was determined as 3.4 ± 0.1 µM and the inhibition at 10 µM is 64.7%.
In data set [1], `Nc1cccc(-c2ccc3c(=O)n(O)c(=O)[nH]c3c2)c1` [21j, 7-(3-Aminophenyl)-3-hydroxyquinazoline-2,4(1H,3H)-dione] displayed a CC50 at 72 h of 13 ± 0.8 µM. The inhibition at 5 µM in data set [2] came out at 16.1%. In data set [3], the 50% effective concentration (EC50) was determined as 7.3 ± 1.3 µM and the inhibition at 10 µM is 51%.
In data set [1], `O=c1[nH]c2cc(-c3ccc(F)c(Cl)c3)ccc2c(=O)n1O` [21l, 7-(3-Chloro-4-fluorophenyl)-3-hydroxyquinazoline-2,4(1H,3H)-dione] came in with a CC50 at 72 h of 40.7 ± 3.9 µM. Also, the inhibition at 5 µM in data set [2] came out at 25.9%. In addition, in data set [3], the EC50 was 7.9 ± 1 µM and the inhibition at 10 µM is 49.7%.
`O=c1[nH]c2cc(-c3ccc(F)cc3F)ccc2c(=O)n1O` [21n, 7-(2,4-Difluorophenyl)-3-hydroxyquinazoline-2,4(1H,3H)-dione] gave a CC50 at 72 h in data set [1] of 11.2 ± 1.4 µM. In addition, in data set [3], a half-maximal effect (EC50) was put at 3.9 ± 0.3 µM and the inhibition at 10 µM came out at 69.7%.
The corresponding values for `COc1ccc(-c2ccc3c(=O)n(O)c(=O)[nH]c3c2)cc1F` [21o, 7-(3-Fluoro-4-methoxyphenyl)-3-hydroxyquinazoline-2,4(1H,3H)-dione] are 4.3 ± 0.4 µM, 3.9 ± 2.2 µM and 71.3%.
In data set [1], `Cc1ccc(F)cc1-c1ccc2c(=O)n(O)c(=O)[nH]c2c1` [21p, 7-(5-Fluoro-2-methylphenyl)-3-hydroxyquinazoline-2,4(1H,3H)-dione] showed a half-maximal cytotoxic concentration (CC50) at 72 h of 13.4 ± 5.2 µM. For the same molecule, in data set [3], the EC50 amounted to 9.9 ± 0.6 µM and the inhibition at 10 µM turned out to be 44.9%.
In the case of `O=c1[nH]c2cc(-c3cccnc3)ccc2c(=O)n1O` [21r, 3-Hydroxy-7-(pyridin-3-yl)quinazoline-2,4(1H,3H)-dione], the inhibition at 5 µM in data set [2] is -5.5%. In data set [3], the inhibition at 10 µM is 26.9% and the inhibition at 25 µM amounted to 65.4%.
In data set [1], `O=c1[nH]c2cc(-c3ccco3)ccc2c(=O)n1O` [21s, 7-(Furan-2-yl)-3-hydroxyquinazoline-2,4(1H,3H)-dione] displayed a CC50 at 72 h of 16.3 ± 0.6 µM. Besides, in data set [2], the inhibition at 5 µM stood at 56.2%. Further, in data set [3], the EC50 came out at 4 ± 0.5 µM and the inhibition at 10 µM came out at 72.6%.
Consider `O=c1[nH]c2c(-c3ccccc3)cccc2c(=O)n1O` [21u, 3-Hydroxy-8-phenylquinazoline-2,4(1H,3H)-dione], for which, in data set [2], the inhibition at 5 µM was 1.8%. For the same molecule, in data set [3], the inhibition at 10 µM turned out to be 27.5% and the inhibition at 25 µM was found to be 40.9%.
For the molecule `Cn1c(=O)n(O)c(=O)c2cc(-c3cccc([N+](=O)[O-])c3)ccc21` [23a, 3-Hydroxy-1-methyl-6-(3-nitrophenyl)quinazoline-2,4(1H,3H)-dione], the CC50 at 72 h in data set [1] was determined as 5.2 ± 0.1 µM. Besides, in data set [3], the response was half-maximal at 2.3 ± 0.1 µM (EC50) and the inhibition at 10 µM came out at 66.5%.
Regarding `Cn1c(=O)n(O)c(=O)c2ccc(-c3ccccc3)cc21` [23b, 3-Hydroxy-1-methyl-7-phenylquinazoline-2,4(1H,3H)-dione], half-maximal cytotoxicity in data set [1] (CC50 at 72 h) was put at 6.7 ± 0.3 µM. The inhibition at 5 µM in data set [2] amounted to 39.2%. Moreover, in data set [3], the EC50 turned out to be 3.9 ± 1 µM and the inhibition at 10 µM was found to be 79.5%.
In turn, `Cn1c(=O)n(O)c(=O)c2ccc(-c3ccc(F)cc3)cc21` [23c, 7-(4-Fluorophenyl)-3-hydroxy-1-methylquinazoline-2,4(1H,3H)-dione] came in with a CC50 at 72 h in data set [1] of 8.1 ± 0.2 µM. Moreover, the inhibition at 5 µM in data set [2] was 40.6%. In addition, in data set [3], the EC50 stood at 4.6 ± 0.5 µM and the inhibition at 10 µM was found to be 79.1%.
Molecule `COc1ccc(-c2ccc3c(=O)n(O)c(=O)n(C)c3c2)cc1` [23d, 3-Hydroxy-7-(4-methoxyphenyl)-1-methylquinazoline-2,4(1H,3H)-dione] yielded a CC50 at 72 h in data set [1] of 9.3 ± 0.4 µM. Also, in data set [3], the midpoint of the response, the EC50, lay at 3.3 ± 0.2 µM and the inhibition at 10 µM was 73.3%.
For `CCn1c(=O)n(O)c(=O)c2ccc(-c3ccccc3)cc21` [23e, 1-Ethyl-3-hydroxy-7-phenylquinazoline-2,4(1H,3H)-dione], the CC50 at 72 h in data set [1] came to 39.5 ± 2.3 µM. Moreover, in data set [3], the EC50 amounted to 26.8 ± 2.5 µM, the inhibition at 10 µM turned out to be 24.6% and the inhibition at 25 µM was found to be 77.5%.
In turn, `O=C(Cn1c(=O)n(O)c(=O)c2ccc(-c3ccco3)cc21)Nc1ccccc1Cl` [23j, N-(2-Chlorophenyl)-2-(7-(furan-2-yl)-3-hydroxy-2,4-dioxo-3,4-dihydroquinazolin-1(2H)-yl)acetamide] had a CC50 at 72 h in data set [1] of 12.2 ± 3.3 µM. Also, in data set [3], the response was half-maximal at 5.2 ± 1.9 µM (EC50), the inhibition at 10 µM stood at 47.8% and the inhibition at 25 µM was found to be 80%.
Regarding `O=c1[nH]c2cc(Br)ccc2c(=O)n1O` [compound 19, 7-Bromo-3-hydroxyquinazoline-2,4(1H,3H)-dione], the CC50 at 72 h in data set [1] was determined as 37.6 ± 2.6 µM. For the same molecule, the inhibition at 5 µM in data set [2] stood at 23.5%. In data set [3], the EC50 was determined as 19 ± 1.8 µM, the inhibition at 10 µM came to 41.1% and the inhibition at 25 µM worked out at 72%.
